Laboratory results as given in patent US12421253B2 (Mirati Therapeutics, Inc., priority 2020, dated 2025).

How the values were obtained:
ASPC1 cells, pERK = assay: Inhibition of KRas phosphorylation of ERK (Cisbio HTRF Advanced pERK assay); assay type: cell-based; conditions: Homo sapiens, ASPC1, 3 h, AsPC-1 cells, read-out: Inhibition (HTRF IC50 nM) of KRas-mediated Phosphorylation of ERK, AsPC-1
Summary of the method: (§1)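 Overnight-plated cells (RPMI, 10% FBS); compound 3 h, 37 °C, 10 uM top, 3-fold x10, 0.8% DMSO; min ctrl trametinib 0.2 uM; lysis 40 min 4 °C; pERK by HTRF, 2 h RT.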

MKN1 cells, pERK = assay: as above; assay type: cell-based; conditions: Homo sapiens, MKN-1, 3 h, read-out: Inhibition (HTRF IC50 nM) of KRas-mediated Phosphorylation of ERK, MKN1
Summary of the method: as §1

PSN1 cells, pERK = assay: as above; assay type: cell-based; conditions: Homo sapiens, PSN1, 3 h, read-out: Inhibition (HTRF IC50 nM) of KRas-mediated Phosphorylation of ERK, PSN1
Summary of the method: as §1

H358 cells, pERK = assay: as above; assay type: cell-based; conditions: Homo sapiens, NCI-H358, 3 hrs, read-out: Inhibition (HTRF IC50 nM) of KRas-mediated Phosphorylation of ERK, H358
Summary of the method: as §1

H460 cells, pERK = assay: as above; assay type: cell-based; conditions: Homo sapiens, NCI-H460, 3 hrs, read-out: Inhibition (HTRF IC50 nM) of KRas-mediated Phosphorylation of ERK, H460
Summary of the method: as §1

H727 cells, pERK = assay: as above; assay type: cell-based; conditions: Homo sapiens, NCI-H727, 3 h, read-out: Inhibition (HTRF IC50 nM) of KRas-mediated Phosphorylation of ERK, H727
Summary of the method: as §1

KRas^G12V = target: T1, KRas^G12V (Homo sapiens, UniProt P01116, G12V); assay: KRas binding assay (TR-FRET displacement of Cy5 labelled tracer)
T1 construct: […]; biotin (biotinylated); purchased Accelegan Inc
T1 sequence (P01116 1-169 isoform P01116-2 G12V): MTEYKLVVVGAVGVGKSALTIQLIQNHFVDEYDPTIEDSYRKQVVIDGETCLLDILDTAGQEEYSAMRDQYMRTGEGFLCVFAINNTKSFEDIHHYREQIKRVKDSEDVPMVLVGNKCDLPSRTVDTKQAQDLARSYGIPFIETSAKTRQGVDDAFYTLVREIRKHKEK

KRas^G12R = target: T2, KRas^G12R (Homo sapiens, UniProt P01116, G12R); assay: as above
T2 construct: […]; biotin (biotinylated); purchased Accelegan Inc
T2 sequence (P01116 1-169 isoform P01116-2 G12R): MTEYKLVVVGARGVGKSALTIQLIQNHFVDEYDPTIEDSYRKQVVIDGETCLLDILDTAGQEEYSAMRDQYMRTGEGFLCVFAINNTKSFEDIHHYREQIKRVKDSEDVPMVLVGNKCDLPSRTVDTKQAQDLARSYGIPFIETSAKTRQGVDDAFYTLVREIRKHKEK

KRas^G12D = target: T3, KRas^G12D (Homo sapiens, UniProt P01116, G12D); assay: as above
T3 construct: […]; biotin (biotinylated); purchased Accelegan Inc
T3 sequence (P01116 1-169 isoform P01116-2 G12D): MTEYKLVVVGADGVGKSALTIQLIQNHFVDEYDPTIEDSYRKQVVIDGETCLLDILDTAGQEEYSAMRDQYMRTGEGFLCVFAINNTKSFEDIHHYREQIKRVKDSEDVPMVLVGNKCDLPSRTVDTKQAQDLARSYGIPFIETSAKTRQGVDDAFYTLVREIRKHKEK

A549 cells, pERK = assay: Inhibition of KRas phosphorylation of ERK (Cisbio HTRF Advanced pERK assay); assay type: cell-based; conditions: Homo sapiens, 3 hrs, read-out: Inhibition (HTRF IC50 nM) of KRas-mediated Phosphorylation of ERK, A549
Summary of the method: as §1

HCT116 cells, pERK = assay: as above; assay type: cell-based; conditions: Homo sapiens, HCT-116, 3 hrs, read-out: Inhibition (HTRF IC50 nM) of KRas-mediated Phosphorylation of ERK, HCT116
Summary of the method: as §1

[1] = system: AsPC-1 (G12D) cells, phospho-ERK; assay: Inhibition of KRas-mediated phosphorylation of ERK (phospho-ERK/GAPDH antibody detection, LI-COR); assay type: cell-based; conditions: Homo sapiens, ASPC1, 3 hours
Procedure: (§2) AsPC-1 (G12D, ATCC CRL-1682), A549 (G12S, ATCC CCL-185), HCT116 (G13D, ATCC CCL-247) cells were grown in DMEM medium supplemented with 10% fetal bovine serum and Penicillin/Streptomycin. NCI-H358 (G12C, ATCC CRL-5807), NCI-H460 (Q61H, ATCC HTB-117), NCI-H727 (G12V, ATCC CRL-5815), MKN1 (WTdep, JCRB JCRB0252), PSN-1 (G12R, ATCC CRM-CRL-3211) cells were grown in RPMI medium supplemented with 10% fetal bovine serum, 10 mM HEPES, 10 mM Sodium Pyruvate, and Penicillin/Streptomycin. Cells were plated in black well clear bottom tissue culture treated 96 well plates (Corning, 3904) at a density of 20,000 cells/well and allowed to attach for 12-14 hours. Diluted compounds were then added in a final concentration of 0.5% DMSO. After 3 hours, 50 μL of 4.0% formaldehyde was added and the plates incubated at room temperature for 20 minutes. The plates were then dumped and permeabilized with 150 μL of ice cold 100% methanol for 10 minutes. Non-specific antibody binding to the plates was blocked using 100 μL Odyssey blocking buffer (LI-COR Biosciences, 927-60010) for 1 hour at room temperature.
(§3) The amount of phospho-ERK was determined using an antibody specific for the phosphorylated form of ERK and compared to the amount of GAPDH. Primary antibodies used for the detection were added as follows: Phospho-ERK (Cell Signaling CS-9101) diluted 1:500 and GAPDH (Millipore MAB374) diluted 1:5000 in Odyssey blocking buffer+0.05% Tween 20. The plates were incubated overnight at 4 C. The plates were washed 3× with 150 uL PBS+0.1% Tween 20.
(§4) Secondary antibodies used to visualize primary antibodies were added as follows: Goat Anti-Rabbit-800 (LI-COR, 926-32211) and Goat Anti-Mouse-680 (LI-COR, 926-68070) diluted 1:800 both in Odyssey blocking buffer+0.05% Tween 20 and were incubated for 1 hour at room temperature. The plates were washed 3× with 150 uL PBS+[…]. Plates were imaged dry on a Li—COR Odyssey CLX plate reader.
(§5) The phospho-ERK (Thr202/Tyr204) signal was normalized to the GAPDH signal for each well and percent of DMSO control values were calculated. IC50 values were generated using a 4-parameter fit of the dose response curve.

[2] = system: NCI-H460 (Q61H) cells, phospho-ERK; assay: as above; assay type: cell-based; conditions: Homo sapiens, 3 hours
Procedure: as §2, §3, §4, §5

[3] = system: NCI-H727 (G12V) cells, phospho-ERK; assay: as above; assay type: cell-based; conditions: Homo sapiens, 3 hours
Procedure: as §2, §3, §4, §5

IC50 (ASPC1 cells, pERK)	IC50 (MKN1 cells, pERK)	IC50 (PSN1 cells, pERK)	IC50 (H358 cells, pERK)	IC50 (H460 cells, pERK)	IC50 (H727 cells, pERK)	IC50 (KRas^G12V)	IC50 (KRas^G12R)	IC50 (KRas^G12D)	IC50 (A549 cells, pERK)	IC50 (HCT116 cells, pERK)	Structure (SMILES)	IC50 [1]	IC50 [2]	IC50 [3]
3 nM	10 nM	2960 nM	3 nM	33 nM	3 nM	52 nM	≤ 2 nM	≤ 2 nM	–	–	CCc1c(F)ccc2cc(O)cc(N3CCc4c(nc(OC[C@@]56CCCN5C[C@H](F)C6)nc4N4CCCn5nc(C(=O)N6CCCC6)cc5C4)C3)c12 [Example 191, (5-(7-(8-ethyl-7-fluoro-3-hydroxynaphthalen-1-yl)-2-(((2R,7aS)-2-fluorotetrahydro-1H-pyrrolizin-7a(5H)-yl)methoxy)-5,6,7,8-tetrahydropyrido[3,4-d]pyrimidin-4-yl)-5,6,7,8-tetrahydro-4H-pyrazolo[1,5-a][1,4]diazepin-2-yl)(pyrrolidin-1-yl)methanone]	–	–	–
71 nM	100 nM	≥ 10000 nM	63 nM	426 nM	115 nM	≤ 2 nM	≤ 2 nM	≤ 2 nM	–	–	CCc1c(F)ccc2cc(O)cc(N3CCc4c(nc(OC[C@@]56CCCN5C[C@H](F)C6)nc4N4CCCc5nn(C(=O)N(C)C)cc5C4)C3)c12 [Example 194, 5-(7-(8-ethyl-7-fluoro-3-hydroxynaphthalen-1-yl)-2-(((2R,7aS)-2-fluorohexahydro-1H-pyrrolizin-7a-yl)methoxy)-5,6,7,8-tetrahydropyrido[3,4-d]pyrimidin-4-yl)-N,N-dimethyl-5,6,7,8-tetrahydropyrazolo[4,3-c]azepine-2(4H)-carboxamide]	–	–	–
2 nM	7 nM	2880 nM	3 nM	49 nM	4 nM	≤ 2 nM	≤ 2 nM	≤ 2 nM	–	–	CCc1c(F)ccc2cc(O)cc(N3CCc4c(nc(OC[C@@]56CCCN5C[C@H](F)C6)nc4N4CCCn5nc(C(=O)NC(C)C)cc5C4)C3)c12 [Example 188, 5-(7-(8-ethyl-7-fluoro-3-hydroxynaphthalen-1-yl)-2-(((2R,7aS)-2-fluorotetrahydro-1H-pyrrolizin-7a(5H)-yl)methoxy)-5,6,7,8-tetrahydropyrido[3,4-d]pyrimidin-4-yl)-N-isopropyl-5,6,7,8-tetrahydro-4H-pyrazolo[1,5-a][1,4]diazepine-2-carboxamide]	–	–	–
45 nM	7 nM	2790 nM	22 nM	169 nM	43 nM	≤ 2 nM	≤ 2 nM	≤ 2 nM	–	–	O=C1NC(=O)C2CN(c3nc(OC[C@@]45CCCN4C[C@H](F)C5)nc4c3CCN(c3cc(O)cc5ccc(F)c(Br)c35)C4)CC12 (stereo partly drawn) [Example 226, 5-(7-(8-bromo-7-fluoro-3-hydroxynaphthalen-1-yl)-2-(((2R,7aS)-2-fluorohexahydro-1H-pyrrolizin-7a-yl)methoxy)-5,6,7,8-tetrahydropyrido[3,4-d]pyrimidin-4-yl)tetrahydropyrrolo[3,4-c]pyrrole-1,3(2H,3aH)-dione]	–	–	–
2 nM	4 nM	2680 nM	1 nM	39 nM	3 nM	52 nM	≤ 2 nM	≤ 2 nM	–	–	CCc1c(F)ccc2cc(O)cc(N3CCc4c(nc(OC[C@@]56CCCN5C[C@H](F)C6)nc4N4CCCn5nc(C(=O)N(C)C)c(C)c5C4)C3)c12 [Example 189, 5-(7-(8-ethyl-7-fluoro-3-hydroxynaphthalen-1-yl)-2-(((2R,7aS)-2-fluorotetrahydro-1H-pyrrolizin-7a(5H)-yl)methoxy)-5,6,7,8-tetrahydropyrido[3,4-d]pyrimidin-4-yl)-N,N,3-trimethyl-5,6,7,8-tetrahydro-4H-pyrazolo[1,5-a][1,4]diazepine-2-carboxamide]	–	–	–
108 nM	24 nM	696 nM	–	253 nM	197 nM	≤ 2 nM	≤ 2 nM	≤ 2 nM	146 nM	405 nM	O=C1NCC2(CCCN(c3nc(OC[C@@]45CCCN4C[C@H](F)C5)nc4c3CCN(c3cc(O)cc5ccc(F)c(Cl)c35)C4)C2)N1 (stereo partly drawn) [Example 228, 7-(7-(8-chloro-7-fluoro-3-hydroxynaphthalen-1-yl)-2-(((2R,7aS)-2-fluorohexahydro-1H-pyrrolizin-7a-yl)methoxy)-5,6,7,8-tetrahydropyrido[3,4-d]pyrimidin-4-yl)-1,3,7-triazaspiro[4.5]decan-2-one]	–	–	–
132 nM	181 nM	≥ 10000 nM	–	1100 nM	283 nM	52 nM	3 nM	≤ 2 nM	524 nM	1700 nM	CCc1c(F)ccc2cc(O)cc(N3CCc4c(nc(OCC5(CN(C)C)CC5)nc4N4CCCn5nc(C(=O)N(C)C)cc5C4)C3)c12 [Example 203, 5-(2-((1-((dimethylamino)methyl)cyclopropyl)methoxy)-7-(8-ethyl-7-fluoro-3-hydroxynaphthalen-1-yl)-5,6,7,8-tetrahydropyrido[3,4-d]pyrimidin-4-yl)-N,N-dimethyl-5,6,7,8-tetrahydro-4H-pyrazolo[1,5-a][1,4]diazepine-2-carboxamide]	–	–	–

Structure (SMILES)	IC50 (ASPC1 cells, pERK)	IC50 (MKN1 cells, pERK)	IC50 (PSN1 cells, pERK)	IC50 (H358 cells, pERK)	IC50 (H460 cells, pERK)	IC50 (H727 cells, pERK)	IC50 (KRas^G12V)	IC50 (KRas^G12R)	IC50 (KRas^G12D)	IC50 (A549 cells, pERK)	IC50 (HCT116 cells, pERK)	IC50 [1]	IC50 [2]	IC50 [3]
CCc1c(F)ccc2cc(O)cc(N3CCc4c(nc(OC[C@@]56CCCN5C[C@H](F)C6)nc4N4CC5C(=O)NC(=O)C5C4)C3)c12 (stereo partly drawn) [Example 24, 5-(7-(8-ethyl-7-fluoro-3-hydroxynaphthalen-1-yl)-2-(((2R,7aS)-2-fluorohexahydro-1H-pyrrolizin-7a-yl)methoxy)-5,6,7,8-tetrahydropyrido[3,4-d]pyrimidin-4-yl)tetrahydropyrrolo[3,4-c]pyrrole-1,3(2H,3aH)-dione]	10 nM	6 nM	2950 nM	–	59 nM	35 nM	≤ 2 nM	≤ 2 nM	≤ 2 nM	17 nM	148 nM	25 nM	65 nM	134 nM
